Experiment: Inhibition of MCP1-induced CCR2-mediated chemotaxis in human THP-1 cells

CC(C)N1CCN[C@@H](C(=O)N2CCN(C(=O)Nc3ccc(Cl)c(Cl)c3)CC2)C1
IC50: 5.1 nM
